Values of other authors, collected in patent US7993684B2, “Method of inhibiting alveolar bone resorption and periodontal membrane loss and composition for internal use to be used therein” (Sunstar Inc., priority 2003, dated 2011).

How the values were obtained:
alveolar bone resorption = settings: Japanese Unexamined Patent Publication No. 1996-133969
[1] = system: periodontal disease-causing bacteria; settings: Japanese Unexamined Patent Publication No. 1992-283518

| Compound | Inhibition of alveolar bone resorption related to periodontal disease (alveolar bone resorption) | Antibacterial activity against periodontal disease-causing bacteria [1] |
| --- | --- | --- |
| calcium pantothenate | inhibit alveolar bone resorption | – |
| O=c1c(-c2ccc(O)cc2)coc2cc(O)cc(O)c12 [genistein] | – | shows antibacterial activity |
